Results from patent US20260364215A1, “Radiopharmaceutical Compositions Targeting Ephrin Type-A Receptor 2 and Uses Thereof” (PeptiDream Inc., priority 2022, published 2026).
Read-outs that look alike come from different tables or passages of the source. Bridge positions count the residues as written; N and C are the ends. Square brackets hold non-standard residues; d marks the D form. Peptide text beside a SMILES is read from it. * marks the point of attachment. DOTA(Lu) = O=C1CN2CCN3CCN(CC(=O)*)CCN(CC2)CC(=O)[O][Lu]([O]1)[O]C(=O)C3; NH(1-deoxy-D-glucityl) = OC[C@@H](O)[C@@H](O)[C@H](O)[C@@H](O)CN*; DOTA = O=C(O)CN1CCN(CC(=O)O)CCN(CC(=O)*)CCN(CC(=O)O)CC1; Trp(1-Me,7-Cl) = Cn1cc(C[C@H](N)C(=O)O)c2cccc(Cl)c21; dPhe(3-CONH2) = NC(=O)c1cccc(C[C@@H](N)C(=O)O)c1; NMePhe(3-CN) = CN[C@@H](Cc1cccc(C#N)c1)C(=O)O; Trp(1-Me) = Cn1cc(C[C@H](N)C(=O)O)c2ccccc21; NMe3Pal = CN[C@@H](Cc1cccnc1)C(=O)O; NMeF = CN[C@@H](Cc1ccccc1)C(=O)O; hCit = NC(=O)NCCCC[C@H](N)C(=O)O; Gly(cBu) = N[C@H](C(=O)O)C1CCC1; Aad = N[C@@H](CCCC(=O)O)C(=O)O; Cit = NC(=O)NCCC[C@H](N)C(=O)O; NMeN = CN[C@@H](CC(N)=O)C(=O)O

Target: T1, Recombinant Human EphA2 Fc Protein (Homo sapiens, UniProt P29317)
T1 construct: purchased Elabscience
Test: Interaction analysis (kinetics, KD) of peptides and conjugates against EphA2 by SPR, Biacore T200, single-cycle kinetics (Examples B15 and B22)
Format: binding
Protocol: Example B15. Interaction Analysis by SPR was Performed Using Biacore (Cytiva)
SPR assay was performed using Biacore T200 (Cytiva).
The HBS-P+ buffer (10 mM HEPES (pH7.4), 150 mM NaCl, 0.05% (v/v) Surfactant P20) containing 1% DMSO was used as running buffer. Recombinant Human EphA2 Fc Protein (Fc tag, Elabscience) was captured by Human Antibody Capture kit (Cytiva). Peptide samples in DMSO were diluted with running buffer, and prepared five serial dilutions. Using these serial dilutions, kinetics of peptides against EphA2 was measured at a flow rate of […] at 25 °C. The method adopted for sample measurement was a single-cycle kinetics method. The analysis was conducted using the evaluation software 3.0 provided with Biacore T200. Kinetics fitting was done on the difference data obtained by subtracting the baseline data from sample measurement data. KD values were calculated based on the association rate constant (ka) and dissociation rate constant (kd).
Example B22: Interaction Analysis of Conjugates by SPR was Performed Using Biacore (Cytiva)
SPR assay was performed using Biacore T200 (Cytiva) according to Example B15.

[1] = conjugates, Biacore T200 according to Example B15, Table B16, read-out: SPR Kd
[2] = peptides, Biacore T200, 25 °C, Table B12, read-out: SPR Kd

T1 sequence (P29317 24-534 limits assumed): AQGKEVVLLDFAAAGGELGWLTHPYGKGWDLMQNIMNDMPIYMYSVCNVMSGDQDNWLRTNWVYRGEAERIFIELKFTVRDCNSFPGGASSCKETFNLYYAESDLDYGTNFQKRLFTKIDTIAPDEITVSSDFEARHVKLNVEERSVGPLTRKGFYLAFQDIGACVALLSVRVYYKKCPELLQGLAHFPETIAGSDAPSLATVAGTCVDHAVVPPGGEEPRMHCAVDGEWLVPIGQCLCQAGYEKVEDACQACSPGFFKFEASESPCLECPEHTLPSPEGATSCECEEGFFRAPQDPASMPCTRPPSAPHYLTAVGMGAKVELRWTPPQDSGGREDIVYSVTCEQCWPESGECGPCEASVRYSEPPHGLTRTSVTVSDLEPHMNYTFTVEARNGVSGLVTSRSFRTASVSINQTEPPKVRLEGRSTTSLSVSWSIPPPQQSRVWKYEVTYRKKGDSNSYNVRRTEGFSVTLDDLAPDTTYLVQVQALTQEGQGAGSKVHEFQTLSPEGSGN

Structure (SMILES) | Kd [nM] | also measured
C[C@@H](O)[C@@H]1NC(=O)[C@H](Cc2cn(C)c3ccccc23)NC(=O)[C@H](CCC(=O)NC[C@H](O)[C@@H](O)[C@H](O)[C@H](O)CO)NC(=O)[C@H](Cc2cn(C)c3c(Cl)cccc23)NC(=O)[C@H](CC(N)=O)N(C)C(=O)[C@H](CCCC(N)=O)NC(=O)[C@H](C2CCC2)NC(=O)[C@H](CC(N)=O)NC(=O)[C@H](Cc2cccc(C#N)c2)N(C)C(=O)[C@@H](Cc2cccc(C(N)=O)c2)NC(=O)CSC[C@@H](C(=O)N[C@H](CCCCNC(=O)CN2CCN3CCN4CCN(CC2)CC(=O)[O][Lu]([O]C(=O)C3)[O]C(=O)C4)C(N)=O)NC(=O)[C@H](CCCC(N)=O)NC1=O [PDC_EphA2-00022615-C302] ({CH2CO}-[dPhe(3-CONH2)][NMePhe(3-CN)]N[Gly(cBu)][Aad](NH2)[NMeN][Trp(1-Me,7-Cl)]E(NH(1-deoxy-D-glucityl))[Trp(1-Me)]T[Aad](NH2)C[dK](DOTA(Lu))-NH2; thioether N-12) | < 1 | 
CC(C)C[C@@H]1NC(=O)[C@H](CC(N)=O)NC(=O)[C@H](Cc2cccnc2)N(C)C(=O)[C@@H](Cc2cccc(C(N)=O)c2)NC(=O)CSC[C@@H](C(=O)N[C@H](CCCCNC(=O)CN2CCN(CC(=O)O)CCN(CC(=O)O)CCN(CC(=O)O)CC2)C(N)=O)NC(=O)[C@H](CC(N)=O)NC(=O)[C@H]([C@@H](C)O)NC(=O)[C@H](Cc2cn(C)c3ccccc23)NC(=O)[C@H](CCC(=O)NC[C@H](O)[C@@H](O)[C@H](O)[C@H](O)CO)NC(=O)[C@H](Cc2cn(C)c3c(Cl)cccc23)NC(=O)[C@H](Cc2cccnc2)N(C)C(=O)[C@H](CC(N)=O)NC1=O.[Lu+3] [PDC_EphA2-00026424-C302] ({CH2CO}-[dPhe(3-CONH2)][NMe3Pal]NLN[NMe3Pal][Trp(1-Me,7-Cl)]E(NH(1-deoxy-D-glucityl))[Trp(1-Me)]TNC[dK](DOTA)-NH2; thioether N-12) |  | Kd [1]: < 1 nM
CC(C)C[C@@H]1NC(=O)[C@H](CC(N)=O)NC(=O)[C@H](Cc2cccnc2)N(C)C(=O)[C@@H](Cc2cccc(C(N)=O)c2)NC(=O)CSC[C@@H](C(N)=O)NC(=O)[C@H](CC(N)=O)NC(=O)[C@H]([C@@H](C)O)NC(=O)[C@H](Cc2cn(C)c3ccccc23)NC(=O)[C@H](CCC(=O)NC[C@H](O)[C@@H](O)[C@H](O)[C@H](O)CO)NC(=O)[C@H](Cc2cn(C)c3c(Cl)cccc23)NC(=O)[C@H](Cc2cccnc2)N(C)C(=O)[C@H](CC(N)=O)NC1=O [PDC_EphA2-00026424] ({CH2CO}-[dPhe(3-CONH2)][NMe3Pal]NLN[NMe3Pal][Trp(1-Me,7-Cl)]E(NH(1-deoxy-D-glucityl))[Trp(1-Me)]TNC-NH2; thioether N-12) |  | Kd [2]: < 1 nM
CC(C)C[C@@H]1NC(=O)[C@H](CC(N)=O)NC(=O)[C@H](Cc2cccnc2)N(C)C(=O)[C@@H](Cc2cccc(C(N)=O)c2)NC(=O)CSC[C@@H](C(=O)N[C@H](CCCCNC(=O)CN2CCN(CC(=O)O)CCN(CC(=O)O)CCN(CC(=O)O)CC2)C(N)=O)NC(=O)[C@H](CC(N)=O)NC(=O)[C@H]([C@@H](C)O)NC(=O)[C@H](Cc2cn(C)c3ccccc23)NC(=O)[C@H](CCC(=O)NC[C@H](O)[C@@H](O)[C@H](O)[C@H](O)CO)NC(=O)[C@H](Cc2cn(C)c3c(Cl)cccc23)NC(=O)[C@H](CC(N)=O)N(C)C(=O)[C@H](CC(N)=O)NC1=O.[Lu+3] [PDC_EphA2-00026425-C302] ({CH2CO}-[dPhe(3-CONH2)][NMe3Pal]NLN[NMeN][Trp(1-Me,7-Cl)]E(NH(1-deoxy-D-glucityl))[Trp(1-Me)]TNC[dK](DOTA)-NH2; thioether N-12) |  | Kd [1]: < 1 nM
CC(C)C[C@@H]1NC(=O)[C@H](CC(N)=O)NC(=O)[C@H](Cc2cccnc2)N(C)C(=O)[C@@H](Cc2cccc(C(N)=O)c2)NC(=O)CSC[C@@H](C(=O)N[C@H](CCCCNC(=O)CN2CCN3CCN4CCN(CC2)CC(=O)[O][Lu]([O]C(=O)C3)[O]C(=O)C4)C(N)=O)NC(=O)[C@H](CC(N)=O)NC(=O)[C@H]([C@@H](C)O)NC(=O)[C@H](Cc2cn(C)c3ccccc23)NC(=O)[C@H](CCCNC(N)=O)NC(=O)[C@H](Cc2cn(C)c3c(Cl)cccc23)NC(=O)[C@H](CC(N)=O)N(C)C(=O)[C@H](CC(N)=O)NC1=O [PDC_EphA2-00026426-C302] ({CH2CO}-[dPhe(3-CONH2)][NMe3Pal]NLN[NMeN][Trp(1-Me,7-Cl)][Cit][Trp(1-Me)]TNC[dK](DOTA(Lu))-NH2; thioether N-12) | < 1 | 
CC(C)C[C@@H]1NC(=O)[C@H](CC(N)=O)NC(=O)[C@H](Cc2cccnc2)N(C)C(=O)[C@@H](Cc2cccc(C(N)=O)c2)NC(=O)CSC[C@@H](C(N)=O)NC(=O)[C@H](CC(N)=O)NC(=O)[C@H]([C@@H](C)O)NC(=O)[C@H](Cc2cn(C)c3ccccc23)NC(=O)[C@H](CCCNC(N)=O)NC(=O)[C@H](Cc2cn(C)c3c(Cl)cccc23)NC(=O)[C@H](CC(N)=O)N(C)C(=O)[C@H](CC(N)=O)NC1=O [PDC_EphA2-00026426] ({CH2CO}-[dPhe(3-CONH2)][NMe3Pal]NLN[NMeN][Trp(1-Me,7-Cl)][Cit][Trp(1-Me)]TNC-NH2; thioether N-12) |  | Kd [2]: < 1 nM
CC(C)C[C@@H]1NC(=O)[C@H](CC(N)=O)NC(=O)[C@H](Cc2cccnc2)N(C)C(=O)[C@@H](Cc2cccc(C(N)=O)c2)NC(=O)CSC[C@@H](C(=O)N[C@@H](CCCCNC(=O)CN2CCN3CCN4CCN(CC2)CC(=O)[O][Lu]([O]C(=O)C3)[O]C(=O)C4)C(N)=O)NC(=O)[C@H](Cc2cn(C)c3ccccc23)NC(=O)[C@H](CCCCNC(N)=O)NC(=O)[C@H](Cc2cn(C)c3c(Cl)cccc23)NC(=O)[C@H](Cc2ccccc2)N(C)C(=O)[C@H](CO)NC1=O [PDC_EphA2-00026600-C301] ({CH2CO}-[dPhe(3-CONH2)][NMe3Pal]NLS[NMeF][Trp(1-Me,7-Cl)][hCit][Trp(1-Me)]CK(DOTA(Lu))-NH2; thioether N-10) | < 1 | 
CC(C)C[C@@H]1NC(=O)[C@H](CC(N)=O)NC(=O)[C@H](Cc2cccnc2)N(C)C(=O)[C@@H](Cc2cccc(C(N)=O)c2)NC(=O)CSC[C@@H](C(=O)N[C@@H](CCCCNC(=O)CN2CCN3CCN4CCN(CC2)CC(=O)[O][Lu]([O]C(=O)C3)[O]C(=O)C4)C(N)=O)NC(=O)[C@H](Cc2cn(C)c3ccccc23)NC(=O)[C@H](CCCCNC(N)=O)NC(=O)[C@H](Cc2cn(C)c3c(Cl)cccc23)NC(=O)[C@H](Cc2cccnc2)N(C)C(=O)[C@H](CO)NC1=O [PDC_EphA2-00026601-C301] ({CH2CO}-[dPhe(3-CONH2)][NMe3Pal]NLS[NMe3Pal][Trp(1-Me,7-Cl)][hCit][Trp(1-Me)]CK(DOTA(Lu))-NH2; thioether N-10) | < 1 | 
CN1C(=O)[C@H](CO)NC(=O)[C@H](C2CCC2)NC(=O)[C@H](CC(N)=O)NC(=O)[C@H](Cc2cccnc2)N(C)C(=O)[C@@H](Cc2cccc(C(N)=O)c2)NC(=O)CSC[C@@H](C(=O)N[C@@H](CCCCNC(=O)CN2CCN3CCN4CCN(CC2)CC(=O)[O][Lu]([O]C(=O)C3)[O]C(=O)C4)C(N)=O)NC(=O)[C@H](Cc2cn(C)c3ccccc23)NC(=O)[C@H](CCCCNC(N)=O)NC(=O)[C@H](Cc2cn(C)c3c(Cl)cccc23)NC(=O)[C@@H]1Cc1cccnc1 [PDC_EphA2-00026602-C301] ({CH2CO}-[dPhe(3-CONH2)][NMe3Pal]N[Gly(cBu)]S[NMe3Pal][Trp(1-Me,7-Cl)][hCit][Trp(1-Me)]CK(DOTA(Lu))-NH2; thioether N-10) | < 1 | 
